From patent publication US6984642B1, “Substituted phenylcyclohexane carboxylic acid amides and their use as adenosine uptake inhibitors” (Bayer Aktiengesellschaft, priority 1999, dated 2006)

System: adenosine-uptake system
Test: Inhibition of adenosine uptake in rabbit erythrocytes
Assay type: cell-based
Conditions: Oryctolagus cuniculus, 0.25 h; rabbit erythrocyte preparation; concentration at which 50% of the adenosine originally employed is still present 15 min after addition; 30° C.
Procedure: 2. Inhibition of Adenosine Uptake in Rabbit Erythrocytes by the Compounds According to the Invention.
The capability of substances to influence the adenosine-uptake system is investigated by determining the inhibitory effect of the substances on functional adenosine uptake. For the functional adenosine-uptake test, an erythrocyte preparation from rabbit blood is used. The blood is drawn intravenously using citrate (3 ml Monovette 9NC from Sarstedt) as anticoagulant. The blood is centrifuged at 3000 g for 5 min and the erythrocytes are suspended in 10 mM MOPS/0.9% NaCl solution pH 7.4. The suspension is diluted to one hundredth of the original blood volume. In each case 990 μl of the suspension are admixed with 10 μl of a suitable concentration of the substance to be investigated, and the mixture is incubated at 30° C. for 5 min. 5 μl of a 4 mM adenosine solution are then added, and the mixture is incubated at 30° C. for another 15 min. The samples are then centrifuged at 3000 g for 5 min and in each case […] of the supernatant are admixed with 28 μl of 70% strength HClO4, allowed to stand in an ice bath for 30 min and centrifuged at 16,000 g for 3 min, and 350 μl of the sample are neutralized using 30 μl of 5N NaOH. 50 μl of the sample are applied to a column (Waters Symmetry C18 […] 3.9×150 mm). A Spherisorb ODS II 5 μm 4.6×10 mm column is used as precolumn. The mobile phase used is a gradient of 50 mM KH2PO^4/5 mM tributylamine pH 7 (mobile phase A) and a mixture of mobile phase A/methanol 1/1 (mobile phase B). The gradient is from 10-40% B, at a flow rate of 0.5 ml/min. The adenosine which is present is quantified by its absorption at 260 nm, as are the hyoxanthine and inosine formed.

| IC50 | Compound |
| --- | --- |
| 15 nM | NC(=O)[C@@H](NC(=O)[C@@H]1CCCC[C@H]1c1ccc(Cn2c(CN3CCOCC3)nc3cccnc32)cc1)c1ccccc1 [Example 3, (S)-N-{{(1R, 2R)-{4-{2-[2-(Morpholin-4-yl-methyl)-1H-pyrido[2,3-d]-imidazol-1-yl]methyl}-phenyl}-cyclohex-1-yl}carbonyl}-phenylglycinamide] |
| 20 nM | CC(C)N1CCN(c2nc3ccccc3n2Cc2ccc([C@@H]3CCCC[C@H]3C(=O)N[C@H](C(N)=O)c3ccccc3)cc2)CC1 [Example 8] |
| 25 nM | NC(=O)[C@@H](NC(=O)[C@@H]1CCCC[C@H]1c1ccc(Cn2c(N3CCNCC3)nc3ccccc32)cc1)c1ccccc1 [Example 10] |
| 10 nM | NC(=O)[C@@H](NC(=O)[C@@H]1CCCC[C@H]1c1ccc(Cn2c(COCCO)nc3cccnc32)cc1)c1ccccc1 [Example 16] |
